Reference: patent US20240409963A1, “Use of Inhibitors to Increase Efficiency of Crispr/CAS Insertions” (AstraZeneca AB, priority 2021, published 2024)

Experiments:
HEK293T cells [1] = test: Different DNAPK inhibitors on precise gene editing outcomes, Example 8; settings: for HDR to indel ratio / Precise KI fold increase: gINS + ssDNA; for Precise KI fold increase: vs DMSO; for MMEJ indels Mean / NHEJ indels Mean / Total editing Mean: sgRNA CD34 (gINS) + ssDNA, 70 hours post-transfection;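 on all read-outs here: cells transfected with plasmids for SpCas9-EGFP, editing outcomes quantified from genomic DNA by deep targeted amplicon sequencing with bioinformatic analysis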
Experimental: Cells allowed to attach for 12 hours before transfection. Cells were transfected with DNA plasmids encoding for SpCas9-EGFP and a sgRNAs targeting CD34 (gINS) in the presence of single-stranded oligonucleotide donor (ssDNA). 70 hours post-transfection cell confluence and EGFP-based transfection efficiencies were determined with the Incucyte S3. Genomic DNA was extracted and editing outcome was analysed through deep-targeted amplicon sequencing using bioinformatic analysis.

HEK293T cells [2] = test: Cell confluency and transfection efficiency in CRISPR/Cas-transfected cells, Example 4; format: cell-based; settings: AZD7648 at a final concentration of 1 mM, FIG. 10
Experimental: (§1) The effect of inhibitors of the MMEJ and NHEJ pathways on CRISPR-Cas-induced DNA double stranded break repair pathways was examined using the process shown schematically in FIG. 2A. Briefly, HEK293T cells were seeded into a 96-well plate 20 hours before transfection with plasmids encoding SpCas9 and a guide RNA (sgRNA) targeting CD34 together with a single-stranded oligonucleotide donor (ssDNA). […] The Pol Q inhibitors used are PolQ_2, PolQ_3, PolQ_4, PolQ_5, PolQ_6 or PolQ_7. Sixty hours post-transfection, genomic DNA was harvested and sequenced using deep-targeted amplicon sequencing. Genetic variants of the sequencing data were determined using a bioinformatic workflow, and the percentages of DNA double-stranded break repair by the MMEJ, NHEJ, and HDR pathways were determined using Rational InDel Meta-Analysis (RIMA). See, e.g., Taheri-Ghafarokhi et al, Nuc. Acids Res., 2018, 46 (16): 8417-8434. The RIMA results are plotted as shown in FIG. 2B, where deletions associated with microhomologies are visualized according to the bars shown in the figure.
HEK293T cells were cultured, transfected, and treated with NHEJ and MMEJ inhibitors as described in Example 1. Cell confluency and transfection efficiency was assessed in transfected cells treated with NHEJ and MMEJ inhibitors.

Cas9-inducible iPSCs = test: SSTR-mediated gene knock-in in Cas9-inducible iPSCs, Example 6; format: cell-based; settings: single inhibitor, mapped reads, FIG. 13
Experimental: (§2) The effect of NHEJ and/or MMEJ pathway inhibition on CRISPR-Cas-induced DNA double stranded break repair pathways in iPSCs was examined. Briefly, iPSCs comprising an inducible Cas9 gene were seeded into a 96-well plate 20 hours before transfection with a plasmid encoding a guide RNA (sgRNA) targeting one of three separate target sites together with a single-stranded oligonucleotide donor (ssDNA), followed by induction of Cas9 expression. […] Sixty hours post-transfection, the percentage of double-stranded break repair by the HDR, NHEJ, and MMEJ pathways was determined as discussed in Example 1.
The effect of NHEJ and MMEJ pathway inhibition on gene knock-in efficiency mediated by the SSTR pathway in iPSCs was investigated. Briefly, Cas9-inducible iPSCs were cultured and transfected with sgRNA and ssDNA polynucleotides as described in Example 5.

[3] = tested on: induced Pluripotent Stem Cells (iPSC); test: Double-strand break repair pathways in Cas9-inducible iPSCs, Example 5; format: cell-based; settings: single inhibitor: AZD7648 1 μM or PolQ inhibitor 3 μM, vs DMSO, FIG. 12
Experimental: as §2

HEK293T cells [4] = test: PolQ inhibitor ART558 titration on precise gene editing outcomes, Example 10; format: cell-based; settings: DNAPK inhibitor 1 μM, PolQ inhibitor 0 μM
Experimental: (§3) HEK293T cells were seeded into 96-well plates and allowed to attach for 20 hours.

HEK293T cells [5] = test: CRISPR/Cas9 double-strand break repair pathway and knock-in analysis (RIMA, amplicon sequencing), Examples 1-3; format: cell-based
Experimental: as §1
The effect of NHEJ and MMEJ inhibitors on the CRISPR/Cas-mediated knock-in efficiency was determined in both mutated and mapped reads.
The effect of MMEJ pathway inhibition on mutated and mapped reads was assessed.

HEK293T cells [6] = test: Off-target editing at HEK3 and HEK4 on- and off-target sites with DNAPK and PolQ inhibitors, Example 12; format: cell-based; settings: DNAPK inhibitor 1 μM, PolQ inhibitor 0 μM
Experimental: as §3

HEK293T cells [7] = test: PolQ2 and PolQ6 on precise gene editing outcome at various target-sites, Example 9; format: cell-based; settings: DNAPK inhibitor 1 μM, PolQ inhibitor 0 μM; for MMEJ indels Mean / NHEJ indels Mean / Total editing Mean: HEK293T, ssDNA donor; for Precise KI fold increase: vs DMSO
Experimental: as §3

[8] = HEK293T, sgRNA CD34 (gMEJ) + ssDNA
[9] = SpCas9 + sgRNA CD34 + ssDNA, AZD7648 1 μM alone or in combination with Pol Q inhibitors, vs DMSO controls, FIG. 4

Q: How did the “HDR to indel ratio” value (HEK293T cells [1]; DNAPK inhibitor 0.3125 μM) turn out when `Cc1cc2ncnn2cc1Nc1ncc2c(n1)n(C1CCOCC1)c(=O)n2C` [AZD7648] was run?
A: 0.3

Q: And the “Precise KI fold increase” value (HEK293T cells [1]; DNAPK inhibitor 0.3125 μM)?
A: 1.4 fold

Q: What about the “HDR to indel ratio” value (HEK293T cells [1]; DNAPK inhibitor 0.625 μM) of the same compound?
A: 0.5

Q: What about the “Precise KI fold increase” value (HEK293T cells [1]; DNAPK inhibitor 0.625 μM) of the same compound?
A: 2.0 fold

Q: What about the “HDR to indel ratio” value (HEK293T cells [1]; DNAPK inhibitor 1.25 μM) of the same compound?
A: 0.6

Q: And the “Precise KI fold increase” value (HEK293T cells [1]; DNAPK inhibitor 1.25 μM)?
A: 2.0 fold

Q: What about the “HDR to indel ratio” value (HEK293T cells [1]; DNAPK inhibitor 5 μM) of the same compound?
A: 1.1

Q: And the “Precise KI fold increase” value (HEK293T cells [1]; DNAPK inhibitor 5 μM)?
A: 2.9 fold

Q: What about the “HDR to indel ratio” value (HEK293T cells [1]; DNAPK inhibitor 10 μM) of the same compound?
A: 1.1

Q: And the “Precise KI fold increase” value (HEK293T cells [1]; DNAPK inhibitor 10 μM)?
A: 2.8 fold

Q: And the “MMEJ indels Mean” value (HEK293T cells [1]; DNAPK inhibitor 0.3125 μM)?
A: 15.2

Q: What about the “NHEJ indels Mean” value (HEK293T cells [1]; DNAPK inhibitor 0.3125 μM) of the same compound?
A: 28.6

Q: And the “Total editing Mean” value (HEK293T cells [1]; DNAPK inhibitor 0.3125 μM)?
A: 69.5

Q: What about the “MMEJ indels Mean” value (HEK293T cells [1]; DNAPK inhibitor 0.625 μM) of the same compound?
A: 17.4

Q: And the “NHEJ indels Mean” value (HEK293T cells [1]; DNAPK inhibitor 0.625 μM)?
A: 18.3

Q: What about the “Total editing Mean” value (HEK293T cells [1]; DNAPK inhibitor 0.625 μM) of the same compound?
A: 66.0

Q: And the “MMEJ indels Mean” value (HEK293T cells [1]; DNAPK inhibitor 1.25 μM)?
A: 16.5

Q: What about the “NHEJ indels Mean” value (HEK293T cells [1]; DNAPK inhibitor 1.25 μM) of the same compound?
A: 8.7

Q: And the “Total editing Mean” value (HEK293T cells [1]; DNAPK inhibitor 1.25 μM)?
A: 53.3

Q: What about the “MMEJ indels Mean” value (HEK293T cells [1]; DNAPK inhibitor 5 μM) of the same compound?
A: 18.5

Q: What about the “NHEJ indels Mean” value (HEK293T cells [1]; DNAPK inhibitor 5 μM) of the same compound?
A: 2.5

Q: And the “Total editing Mean” value (HEK293T cells [1]; DNAPK inhibitor 5 μM)?
A: 57.5

Q: And the “MMEJ indels Mean” value (HEK293T cells [1]; DNAPK inhibitor 10 μM)?
A: 16.9

Q: And the “NHEJ indels Mean” value (HEK293T cells [1]; DNAPK inhibitor 10 μM)?
A: 2.2

Q: What about the “Total editing Mean” value (HEK293T cells [1]; DNAPK inhibitor 10 μM) of the same compound?
A: 53.7

Q: And the cell confluency (HEK293T cells [2])?
A: no significant effect

Q: What about the “SSTR-mediated gene knock-in at all three target sites” value (Cas9-inducible iPSCs) of the same compound?
A: increased

Q: And the “double-strand break repair by the HDR pathway” value [3]?
A: marked in increase

Q: And the “repair by the MMEJ and NHEJ pathways” value [3]?
A: decreased

Q: What about the “MMEJ indels Mean” value (HEK293T cells [4]; [8]) of the same compound?
A: 32.6

Q: And the “NHEJ indels Mean” value (HEK293T cells [4]; [8])?
A: 1.3

Q: And the “Total editing Mean” value (HEK293T cells [4]; [8])?
A: 74.4

Q: What about the “KI to indel ratio” value (HEK293T cells [4]; gMEJ + ssDNA) of the same compound?
A: 0.7

Q: What about the CRISPR/Cas-mediated editing efficiency (HEK293T cells [5]; AZD7648 1 μM alone and in combination with Pol Q inhibitors, FIG. 5) of the same compound?
A: did not affect

Q: What about the “double-strand break repair by the HDR pathway” value (HEK293T cells [5]; [9]) of the same compound?
A: marked in increase

Q: What about the “repair by the MMEJ and NHEJ pathways” value (HEK293T cells [5]; [9]) of the same compound?
A: decreased

Q: What about the “OT1 off-target editing Mean” value (HEK293T cells [6]; HEK3 nodonor) of the same compound?
A: 41.9

Q: What about the “OT2 off-target editing Mean” value (HEK293T cells [6]; HEK3 nodonor) of the same compound?
A: 32.5

Q: And the “OT3 off-target editing Mean” value (HEK293T cells [6]; HEK3 nodonor)?
A: 16.3

Q: What about the “OT4 off-target editing Mean” value (HEK293T cells [6]; HEK3 nodonor) of the same compound?
A: 0.3

Q: What about the “on-target editing Mean” value (HEK293T cells [6]; HEK3 nodonor) of the same compound?
A: 73.8

Q: And the “OT1 off-target editing Mean” value (HEK293T cells [6]; HEK3 ssDNA)?
A: 17.7

Q: What about the “OT2 off-target editing Mean” value (HEK293T cells [6]; HEK3 ssDNA) of the same compound?
A: 12.7

Q: And the “OT3 off-target editing Mean” value (HEK293T cells [6]; HEK3 ssDNA)?
A: 7.6

Q: What about the “OT4 off-target editing Mean” value (HEK293T cells [6]; HEK3 ssDNA) of the same compound?
A: 0.1

Q: What about the “on-target editing Mean” value (HEK293T cells [6]; HEK3 ssDNA) of the same compound?
A: 61.5

Q: What about the “OT1 off-target editing Mean” value (HEK293T cells [6]; HEK4 nodonor) of the same compound?
A: 12.7

Q: What about the “OT2 off-target editing Mean” value (HEK293T cells [6]; HEK4 nodonor) of the same compound?
A: 7.3

Q: And the “OT3 off-target editing Mean” value (HEK293T cells [6]; HEK4 nodonor)?
A: 36.3

Q: What about the “on-target editing Mean” value (HEK293T cells [6]; HEK4 nodonor) of the same compound?
A: 9.8

Q: And the “OT1 off-target editing Mean” value (HEK293T cells [6]; HEK4 ssDNA)?
A: 5.4

Q: What about the “OT2 off-target editing Mean” value (HEK293T cells [6]; HEK4 ssDNA) of the same compound?
A: 3.3

Q: What about the “OT3 off-target editing Mean” value (HEK293T cells [6]; HEK4 ssDNA) of the same compound?
A: 18.2

Q: And the “on-target editing Mean” value (HEK293T cells [6]; HEK4 ssDNA)?
A: 15.6

Q: And the “MMEJ indels Mean” value (HEK293T cells [7]; target-site gDel)?
A: 8.9

Q: What about the “NHEJ indels Mean” value (HEK293T cells [7]; target-site gDel) of the same compound?
A: 1.3

Q: What about the “Total editing Mean” value (HEK293T cells [7]; target-site gDel) of the same compound?
A: 77.3

Q: And the “MMEJ indels Mean” value (HEK293T cells [7]; target-site gMej)?
A: 27.9

Q: What about the “NHEJ indels Mean” value (HEK293T cells [7]; target-site gMej) of the same compound?
A: 2.9

Q: And the “Total editing Mean” value (HEK293T cells [7]; target-site gMej)?
A: 83.1

Q: What about the “MMEJ indels Mean” value (HEK293T cells [7]; target-site glns) of the same compound?
A: 13.3

Q: And the “NHEJ indels Mean” value (HEK293T cells [7]; target-site glns)?
A: 1.3

Q: And the “Total editing Mean” value (HEK293T cells [7]; target-site glns)?
A: 83.0

Q: And the “KI to indel ratio” value (HEK293T cells [7]; target-site gDel)?
A: 4.0

Q: What about the “Precise KI fold increase” value (HEK293T cells [7]; target-site gDel) of the same compound?
A: 2.5 fold

Q: What about the “KI to indel ratio” value (HEK293T cells [7]; target-site gMej) of the same compound?
A: 1.0

Q: And the “Precise KI fold increase” value (HEK293T cells [7]; target-site gMej)?
A: 2.2 fold

Q: And the “KI to indel ratio” value (HEK293T cells [7]; target-site glns)?
A: 3.3

Q: And the “Precise KI fold increase” value (HEK293T cells [7]; target-site glns)?
A: 3.3 fold
